The values that follow come from patent publication US20070275911A1, “Targeted Drug-Formaldehyde Conjugates and Methods of Making and Using the Same” (priority 2003, published 2007).

Data set [1] can be described thus: Tolerance, acute toxicity and efficacy in mice. The note with it: preliminary mouse in vivo formulation experiments.
Data set [2] concerns Rtx-6 cells. In words: Uptake and estradiol competition by flow cytometry. In kind it is cell-based. The method, then:
The uptake and release in Rtx-6 cells were also investigated. Rtx-6 cells were treated with DOX, DOXSF, or DOX-TEG-TAM as described above to determine both the uptake and the release of drug following a 1 h treatment. DOX-TEG-TAM was taken up to a greater extent than DOX (>3-fold) and DOXSF (>2-fold). The enhanced uptake relative to DOX and DOXSF could be attributed to the presence of ER and the lipophilicity of DOX-TEG-TAM. The uptake of DOX-TEG-TAM in Rtx-6 cells is perhaps best compared to the uptake in the parent MCF-7 cell line. DOX-TEG-TAM was taken up to a greater extent in MCF-7 cells (25 RFU) relative to Rtx-6 cells (14 RFU). One possible explanation for this difference is the presence of both AEBS and ER in MCF-7 cells versus only ER in Rtx-6 cells. […] No further inhibition occurs at higher concentrations, possibly because of non-specific binding of DOX-TEG-TAM at hydrophobic sites in Rtx-6 cells.
Uptake and release of DOX, DOXSF, and DOX-TEG-TAM: The uptake and release of DOX-TEG-TAM in breast cancer cells relative to DOX and untargeted DOXSF was performed as described with modifications. Breast cancer cells in log phase growth were dissociated with trypsin-EDTA, counted, resuspended in media at 1.5×10^5 cells/mL, and plated into six well plates (450,000 cells/well) and allowed to adhere overnight. The cells were treated with 0.5 μM DOX, DOXSF, or DOX-TEG-TAM for various amounts of time (20 min, 40 min, and 60 min). Drug treatment was accomplished by addition of 30 μL of 100× drug solution (50 μM) to 3 mL of media which was mixed and immediately added to the cells. For each time point, the media was removed, cells were trypsinized, and trypsinization was quenched with 3 mL phenol red-free RPMI 1640 media (no serum) at 4° C. Cells were pelleted by centrifugation at 300 g for 5 min at 10° C. The supernatant was decanted and the cells were re-suspended in 1 mL serum- and phenol red-free RPMI 1640 media and placed on ice.
The extent of drug uptake and retention was measured by flow cytometry. Cells were analyzed with excitation at 488 nm (15 mW Ar ion laser), with emission monitored between 570 and 600 nm. Instrument settings were optimized for each cell line and held constant for all experiments; 10,000 cells were analyzed for anthracycline fluorescence. The data are presented as the mean fluorescence for each condition with the background, drug-free cell fluorescence subtracted.
The cell samples were prepared and analyzed by flow cytometry as described above.
(A flow cytometer gives signals particle by particle.)

For data set [3], the target named is T1, AEBS (Homo sapiens, UniProt Q15125+Q9UBM7).
T1 construct: MCF-7 cells were utilized as the AEBS source; endogenous in cells; host or cells: MCF-7 cells
Put plainly: AEBS binding, competition with 3H-tamoxifen in MCF-7 cell lysate. The note with it: 50 nM competitor.

Data set [4] in a line: Hydrolysis of anthracycline-formaldehyde N-Mannich bases followed by HPLC. The method, then: The area under the curve for the N-Mannich base was determined at each time point and was used to establish the kinetics of decomposition, using regression software. Hydrolysis of AOM-doxsaliform was carried out in pH 8.0 100 mM sodium phosphate buffer at 37° C. AOM-doxsaliform was dissolved in 48.0 μL DMSO and this solution was diluted into phosphate buffer to give 4.8 mL of an […] solution containing 1% DMSO. To this solution was added 6 μL of pig liver esterase (0.8 units/μL; Sigma; Milwaukee, Wis.) to achieve a final concentration of 1.0 units/mL. […] Brief centrifugation served to pellet the insoluble fraction. The drug solution was then transferred to a round bottom flask and concentrated by brief rotary-evaporation at 20° C. Reverse phase HPLC was used to analyze the extent of hydrolysis.
Hydrolysis of the N-Mannich bases, prepared from either doxorubicin or daunorubicin and the respective amides, at 37° C. in pH 7.4 triethylammonium acetate (TEAA) buffer (20 mM) containing 10-30% MeOH was monitored by reverse phase HPLC. […] Identification of a less robust construct that could be used to rapidly deliver the active Schiff base metabolite of doxorubicin to a growing tumor was undertaken.

The test system of data set [5] is PC3/AR and PC3/neo cells. The note with it: 3 h treatment / over time. The method, then: The fluorescence of doxorubicin can be monitored in order to determine the rate of uptake and intracellular distribution of the anthraquinone fluorophore.
This cell suspension was dispensed in 2 mL aliquots into 6-well tissue culture plates. Plates were then incubated for 36 h at 37° C. in a humidified atmosphere of 5% CO2 and 95% air. The medium was replaced with 1 mL of phenol red-free RPMI 1640 growth medium supplemented with 10% dextran-coated charcoal stripped FBS prior to addition of the test compound. The appropriate compound was dissolved in DMSO and the concentration was adjusted to 50-200 μM by measuring the solution absorbance at 480 nm. Addition of 10 μL of the appropriate doxorubicin or prodrug solution was followed by incubation at 37° C. as indicated. The drug solution in individual wells was removed at the appropriate time and the cells were washed with 1 mL of the phenol red-free growth medium. The washed cells were then supplemented with 1 mL of phenol-red free growth medium for imaging.

T1 sequence (Q15125 2-230): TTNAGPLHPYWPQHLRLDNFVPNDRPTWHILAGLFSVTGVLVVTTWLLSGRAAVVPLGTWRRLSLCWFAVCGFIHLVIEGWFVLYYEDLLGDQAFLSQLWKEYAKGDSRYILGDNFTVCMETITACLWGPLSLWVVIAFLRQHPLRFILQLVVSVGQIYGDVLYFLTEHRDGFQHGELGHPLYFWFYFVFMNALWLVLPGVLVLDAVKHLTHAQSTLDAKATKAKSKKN
T1 sequence (Q9UBM7 whole entry): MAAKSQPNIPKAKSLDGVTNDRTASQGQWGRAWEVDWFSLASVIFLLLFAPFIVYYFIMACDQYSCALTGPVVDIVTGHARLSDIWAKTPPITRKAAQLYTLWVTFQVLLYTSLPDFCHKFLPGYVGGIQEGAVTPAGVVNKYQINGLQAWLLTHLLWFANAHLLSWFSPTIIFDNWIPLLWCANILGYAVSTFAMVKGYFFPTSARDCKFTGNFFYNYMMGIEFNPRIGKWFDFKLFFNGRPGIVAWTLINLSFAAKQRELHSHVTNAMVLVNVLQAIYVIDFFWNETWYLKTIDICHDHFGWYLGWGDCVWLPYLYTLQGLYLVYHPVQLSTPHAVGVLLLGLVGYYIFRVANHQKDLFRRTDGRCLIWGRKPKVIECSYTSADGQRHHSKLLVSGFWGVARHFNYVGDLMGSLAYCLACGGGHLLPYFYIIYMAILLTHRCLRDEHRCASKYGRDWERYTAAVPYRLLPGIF

On to `CC/C(=C(/c1ccc(O)cc1)c1ccc(OCCN(C)CCOCCOCCO/N=C/c2ccc(O)c(C(=O)NCN[C@H]3C[C@H](O[C@H]4C[C@](O)(C(=O)CO)Cc5c(O)c6c(c(O)c54)C(=O)c4c(OC)cccc4C6=O)O[C@@H](C)[C@H]3O)c2)cc1)c1ccccc1` [11c, E/Z-N-(2-Hydroxy-5-{[2-(2-{2-[(2-{4-[1-(4-hydroxy-phenyl)-2-phenyl-but-1-enyl]-phenoxy}-ethyl)-methyl-amino]-ethoxy}-ethoxy)-ethoxyimino]-methyl}-benzamide)-doxorubicin], for which the acute toxicity entry in data set [1] is given as “substantially less than that of doxoform”. Also, in data set [2] (Rtx-6), the “fold uptake greater than DOX” value is over 3 fold. Also, the “fold uptake greater than DOXSF” value in data set [2] (Rtx-6) is listed as over 2 fold. The “inhibition of uptake by estradiol” value in data set [2] (Rtx-6, 0.5 μM drug, 20 nM estradiol) turned out to be 70%. In data set [2] (Rtx-6, 1 h treatment), the “drug uptake (DOX fluorophore)” value was 14 RFU. Also, the figures for the “AEBS binding affinity relative to the targeting group” value in data set [3] (0.05 nM 3H-tamoxifen), in data set [3] (0.5 nM 3H-tamoxifen) and in data set [3] (5 nM 3H-tamoxifen) were 70%, 72% and 48%, respectively.
On to `COc1cccc2c1C(=O)c1c(O)c3c(c(O)c1C2=O)C[C@@](O)(C(=O)CO)C[C@@H]3O[C@H]1C[C@H](NCNC(=O)c2ccccc2O)[C@H](O)[C@H](C)O1` [doxsaliform, N-(2-Hydroxybenzamido-methyl)-doxorubicin], for which the “estimated pKa of the amino moiety” value in data set [4] is listed as 3.0-3.5. Also, the “storage stability of lyopholyzed salts” value in data set [4] (−20° C.) was “stable at −20 °C for periods of several months”. The “decomposition of the free base on storage” value in data set [4] (−20° C., after 3 weeks) is listed as about 20%. Further, the “intracellular distribution of fluorescence over time” value in data set [5] was “exclusive nuclear accumulation of fluorescence”.
